Source: US11690860B2, “Treatment of HCV infected patients with cirrhosis” (Atea Pharmaceuticals, Inc., priority 2018, dated 2023)
Entries after “also recorded” stand apart in the source; their conditions may differ. Read-outs that look alike come from different tables or passages of the source.

Assay: Plasma pharmacokinetics of Compound 1 and metabolite 1-7 (LC-MS/MS) in Parts C, D and E
Format: in vivo, human
Method: Doses were administered as the Compound 2 salt base. The free base Compound 1 equivalent is often given in parenthesis.
Part C was a randomized, double-blind, placebo-controlled MAD study divided into three cohorts. […] The dose escalation only proceeded following satisfactory review of the data.
HCV-infected patients were treatment-naïve with HCV RNA ≥5 log 10 IU/mL. HCV RNA was quantified using COBAS® AmpliPrep TaqMAN® v2.0 with LLQ of 15 IU/mL. Plasma drug levels were measured using LC-MS/MS. […] Cirrhosis was confirmed by prior liver biopsy or Fibroscan >12.5 kPa. […] Mean ages of enrolled subjects were 44, 39, and 56 years in the non-cirrhotic GT1b 600 mg dose cohort, non-cirrhotic GT3 cohort, and the cirrhotic cohort, respectively.
Plasma levels of metabolite 1-7 were measured using LC-MS/MS.

[1] = Part C, 150 to 600 mg Compound 2

With `C[C@@]1(F)[C@H](O)[C@@H](CO)O[C@H]1n1cnc2c(=O)[nH]c(N)nc21` [Metabolite 1-7, 2-amino-9-((2R,3R,4R,5R)-3-fluoro-4-hydroxy-5-(hydroxymethyl)-3-methyltetrahydrofuran-2-yl)-1,9-dihydro-6H-purin-6-one] the “PK in cirrhotic compared with non-cirrhotic subjects” value (600 mg QD of Compound 2, Parts C/D vs Part E) was “similar; also recorded: comparable”, the “time at which steady state was reached” value (NC subjects, based on metabolite 1-7 trough levels) was “after the third or fourth dose; also recorded: day 3 or 4” and the “higher trough upon reaching steady state” value (Part C) was 50%-60%. For the same compound, the “time of peak formation after dosing” value (Part C) was “approximately 6 hours”, the “dose proportionality of plasma exposure (peak and total)” value [1] was “dose proportional from 150 to 300 mg and less than dose proportional from 300 mg to 600 mg” and the “dose proportionality of trough levels” value [1] was “mostly dose proportional”. The “AUC Day 1 (AUC, for Metabolite 1-7)” value (Part C, NC GT1b, 150 mg/d Compound 2 QD, n=6) was 800 ± 213 ng/mLxh, the “AUC Day 1 (AUC, for Metabolite 1-7)” value (Part C, NC GT1b, 300 mg/d Compound 2 QD, n=6) was 1414 ± 220 ng/mLxh and the “AUC Day 1 (AUC, for Metabolite 1-7)” value (Part C, NC GT1b, 600 mg/d Compound 2 QD, n=6) was 2204 ± 486 ng/mLxh. The “C24 h Day 1” value (Part C, NC GT1b, 600 mg/d Compound 2 QD, n=6, trough after the first dose) was 27.5 ± 5.21 ng/mL, the “AUC Day 1 (AUC, for Metabolite 1-7)” value (Part D, NC GT3, 600 mg/d Compound 2 QD, n=6) was 2253 ± 595 ng/mLxh and the “C24 h Day 1” value (Part D, NC GT3, 600 mg/d Compound 2 QD, n=6, trough after the first dose) was 30.1 ± 10.9 ng/mL. The “AUC Day 1 (AUC, for Metabolite 1-7)” value (Part E, Child-Pugh A cirrhotic, 600 mg/d Compound 2 QD, n=6) was 2625 ± 873 ng/mLxh, the “C24 h Day 1” value (Part E, Child-Pugh A cirrhotic, 600 mg/d Compound 2 QD, n=6, trough after the first dose) was 41.6 ± 12.9 ng/mL and the “steady state plasma trough level” value (cirrhotic patients, 600 mg of Compound 2) was 45.7 ng/mL. For the same compound, the AUC (human, plasma, 150 mg, AUC of metabolite 1-7, range for the dose, 150 mg Compound 2 QD 7 days (FIG. 7)) was 397 to 1430 ng·h/mL, the AUC (human, plasma, 300 mg, AUC of metabolite 1-7, range for the dose, 300 mg Compound 2 QD 7 days (FIG. 7)) was 1300 to 2580 ng·h/mL and the AUC (human, plasma, 600 mg, AUC of metabolite 1-7, range for the dose, 600 mg Compound 2 QD 7 days (FIG. 7)) was 2250 to 5380 ng·h/mL. For the same compound, the AUC (human, plasma, 600 mg, metabolite 1-7 exposure (AUC) achieved, 600 mg Compound 2 QD, all subjects, cirrhotic or non-cirrhotic) was greater than 2000 ng·h/mL, the concentration at 24 h (human, plasma, oral, 150 mg/d, Part C, NC GT1b, 150 mg/d Compound 2 QD, n=6, read-out: C24 h Day 1) was 8.08 ± 3.48 ng/mL and the Cmax (human, plasma, oral, 150 mg/d, Part C, NC GT1b, 150 mg/d Compound 2 QD, n=6, read-out: Cmax Day 1) was 75.6 ± 15.4 ng/mL. It also gave a concentration at 24 h (human, plasma, oral, 150 mg/d, steady state = mean of C24 at 72, 96, 120, 144 and 168 h, Part C, NC GT1b, 150 mg/d Compound 2 QD, n=6, read-out: C24 h SS) of 12.8 ± 4.45 ng/mL, a Cmax (human, plasma, oral, 150 mg/d, steady state, Part C, NC GT1b, 150 mg/d Compound 2 QD, n=6, read-out: Cmax SS) of 81.1 ± 33.9 ng/mL and a half-life (human, plasma, oral, 150 mg/d, steady state, Part C, NC GT1b, 150 mg/d Compound 2 QD, n=6, read-out: T1/2 SS (converted)) of 12.5 h. For the same compound, the Cmax (human, plasma, oral, 300 mg/d, Part C, NC GT1b, 300 mg/d Compound 2 QD, n=6, read-out: Cmax Day 1) was 123 ± 16.6 ng/mL, the concentration at 24 h (human, plasma, oral, 300 mg/d, steady state = mean of C24 at 72, 96, 120, 144 and 168 h, Part C, NC GT1b, 300 mg/d Compound 2 QD, n=6, read-out: C24 h SS) was 26.1 ± 7.56 ng/mL and the Cmax (human, plasma, oral, 300 mg/d, steady state, Part C, NC GT1b, 300 mg/d Compound 2 QD, n=6, read-out: Cmax SS) was 220 ± 203 ng/mL. The half-life (human, plasma, oral, 300 mg/d, steady state, Part C, NC GT1b, 300 mg/d Compound 2 QD, n=6, read-out: T1/2 SS (converted)) was 24.5 h, the Cmax (human, plasma, oral, 600 mg/d, Part C, NC GT1b, 600 mg/d Compound 2 QD, n=6, read-out: Cmax Day 1) was 197 ± 57.1 ng/mL and the concentration at 24 h (human, plasma, oral, 600 mg/d, Part C, NC GT1b, 600 mg/d Compound 2 QD, n=6, trough after the first dose, read-out: C24 h Day 1) was 27.5 ng/mL. It also gave a Cmax (human, plasma, oral, 600 mg/d, Part D, NC GT3, 600 mg/d Compound 2 QD, n=6, read-out: Cmax Day 1) of 195 ± 42.9 ng/mL, a concentration at 24 h (human, plasma, oral, 600 mg/d, Part D, NC GT3, 600 mg/d Compound 2 QD, n=6, trough after the first dose, read-out: C24 h Day 1) of 30.1 ng/mL and a Cmax (human, plasma, oral, 600 mg/d, Part E, Child-Pugh A cirrhotic, 600 mg/d Compound 2 QD, n=6, read-out: Cmax Day 1) of 201 ± 68.1 ng/mL. For the same compound, the concentration at 24 h (human, plasma, oral, 600 mg/d, Part E, Child-Pugh A cirrhotic, 600 mg/d Compound 2 QD, n=6, trough after the first dose, read-out: C24 h Day 1) was 41.6 ng/mL, the concentration at 24 h (human, plasma, oral, 600 mg/d, steady state = mean of C24 at 72, 96, 120, 144 and 168 h, Part C, NC GT1b, 600 mg/d Compound 2 QD, n=6, read-out: C24 h SS) was 46.9 ± 15.5 ng/mL and the concentration at 24 h (human, plasma, oral, 600 mg/d, steady state = mean of C24 at 72, 96, 120, 144 and 168 h, Part D, NC GT3, 600 mg/d Compound 2 QD, n=6, read-out: C24 h SS) was 37.8 ± 11.4 ng/mL. It also gave a concentration at 24 h (human, plasma, oral, 600 mg/d, steady state = mean of C24 at 72, 96, 120, 144 and 168 h, Part E, Child-Pugh A cirrhotic, 600 mg/d Compound 2 QD, n=6, read-out: C24 h SS) of 69.9 ± 18.5 ng/mL, a Cmax (human, plasma, oral, 600 mg/d, steady state, Part C, NC GT1b, 600 mg/d Compound 2 QD, n=6, read-out: Cmax SS) of 233 ± 42.9 ng/mL and a half-life (human, plasma, oral, 600 mg/d, steady state, Part C, NC GT1b, 600 mg/d Compound 2 QD, n=6, read-out: T1/2 SS (converted)) of 28.9 h. For the same compound, the Cmax (human, plasma, oral, 600 mg/d, steady state, Part D, NC GT3, 600 mg/d Compound 2 QD, n=6, read-out: Cmax SS) was 263 ± 104 ng/mL, the half-life (human, plasma, oral, 600 mg/d, steady state, Part D, NC GT3, 600 mg/d Compound 2 QD, n=6, read-out: T1/2 SS (converted)) was 27.9 h and the half-life (human, plasma, oral, 600 mg/d, steady state, Part E, Child-Pugh A cirrhotic, 600 mg/d Compound 2 QD, n=6, read-out: T1/2 SS (converted)) was 24.4 h. The Tmax (human, plasma, oral, 600 mg/d, steady state, Part E, Child-Pugh A cirrhotic, 600 mg/d Compound 2 QD, n=6, read-out: Tmax SS) was 6 h, the half-life (human, plasma, oral, Part C, read-out: half-life) was 13 to 30 h and the “food effect on total and trough exposure” value (in vivo) was “No food effect”. The “AUC SS (AUC, for Metabolite 1-7)” value (steady state, Part C, NC GT1b, 150 mg/d Compound 2 QD, n=6) was 962 ± 409 ng/mLxh, the “AUC SS (AUC, for Metabolite 1-7)” value (steady state, Part C, NC GT1b, 300 mg/d Compound 2 QD, n=6) was 1828 ± 453 ng/mLxh and the “AUC SS (AUC, for Metabolite 1-7)” value (steady state, Part C, NC GT1b, 600 mg/d Compound 2 QD, n=6) was 2839 ± 572 ng/mLxh. For the same compound, the “AUC SS (AUC, for Metabolite 1-7)” value (steady state, Part D, NC GT3, 600 mg/d Compound 2 QD, n=6) was 3117 ± 1048 ng/mLxh, the “AUC SS (AUC, for Metabolite 1-7)” value (steady state, Part E, Child-Pugh A cirrhotic, 600 mg/d Compound 2 QD, n=6) was 3569 ± 1214 ng/mLxh and the “time at which steady state was reached” value (subjects with cirrhosis) was “day 5; also recorded: after the fifth dose”.
